Data on 21 compounds can be found in patent US20260055083A1, “APOL1 INHIBITORS AND METHODS OF USE” (Maze Therapeutics, Inc., priority 2022, published 2026).

In experiment [1] the target is T1, APOL1 G2 (Homo sapiens, UniProt O14791, DEL388-389).
T1 construct: expressed in transfected cells; host or cells: HEK293/T-REx APOL1 G2 clone #2, doxycycline-inducible
T1 sequence (O14791 with tags, fused parts or gaps DEL388-389): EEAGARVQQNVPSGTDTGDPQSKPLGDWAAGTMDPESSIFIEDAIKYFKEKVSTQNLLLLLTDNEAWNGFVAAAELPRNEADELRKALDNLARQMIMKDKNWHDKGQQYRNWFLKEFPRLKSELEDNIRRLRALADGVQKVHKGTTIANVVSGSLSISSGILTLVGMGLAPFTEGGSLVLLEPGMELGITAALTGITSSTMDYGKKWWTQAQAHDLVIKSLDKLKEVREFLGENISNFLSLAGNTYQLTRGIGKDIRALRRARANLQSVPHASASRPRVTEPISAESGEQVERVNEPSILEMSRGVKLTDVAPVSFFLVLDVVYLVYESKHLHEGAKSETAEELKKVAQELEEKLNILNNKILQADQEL
Nature of the experiment: APOL1 G2 FLIPR calcium influx assay (HEK T-REx/GCaMP6f/APOL1 G2 K6.3 cells). The experiment is classed as cell-based. As to conditions: HEK293 clone expressing GCaMP6f, doxycycline-induced APOL1 G2; prevention of calcium influx; geometric mean of at least 2 assay runs. The method in brief: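 HEK293 clone stably expressing GCaMP6f, APOL1 G2 induced with doxycycline for 6 h; compounds (duplicate 8-point dose response) preincubated 10 min at room temperature in Ca2+-free Tyrode's buffer, pH 7.4. Ca2+ added to 5 mM final, influx read on FLIPR; AC50 is geometric mean of ≥2 runs.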

Experiment [2] addresses T1, APOL1 G2. The experiment can be described thus: APOL1 G2 HEK293 rescue of cell death caused by overexpression of APOL1 (CellTiter-Glo). The experiment is classed as cell-based. As to conditions: HEK293/T-REx APOL1 G2 clone #2, doxycycline induction, 17 hours, CellTiter-Glo luminescence; reversal of cell death; geometric mean of at least 2 assay runs. The method in brief: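 Doxycycline (6 ng/mL)-induced HEK293/T-REx APOL1 G2 clone seeded at 5,000 cells/well with compound in duplicate 8-point 3-fold series (0.5% DMSO), 17 h at 37 °C. CellTiter-Glo luminescence; EC50 from four-parameter logistic fit, geometric mean of ≥2 runs.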
A general note: In ATP-based viability assays light output follows the ATP content of the culture.

Where only a bound is given, the exact number is not on record here.

What is called AC50 is the concentration giving half of the maximal activity seen. The EC50 is the concentration that produces a half-maximal response. As to `C[C@@H]1CN(C(CO)Cc2cc(Cl)cc(C#N)c2)C[C@H]1COc1ccc(S(C)(=O)=O)cc1` (single isomer, unassigned) [Compound 121, 3-chloro-5-[(2R or 2S)-3-hydroxy-2-[(3S,4S)-3-[(4-methanesulfonylphenoxy)methyl]-4-methylpyrrolidin-1-yl]propyl]benzonitrile], the AC50 at APOL1 G2 [1] is 1110 nM. In addition, the EC50 on APOL1 G2 [2] was over 10000 nM.

Turning to `C[C@@H]1CN(C(CO)Cc2cc(Cl)cc(C#N)c2)C[C@H]1COc1ccc(S(C)(=O)=O)cc1` (single isomer, unassigned) [Compound 122, 3-chloro-5-[(2S or 2R)-3-hydroxy-2-[(3S,4S)-3-[(4-methanesulfonylphenoxy)methyl]-4-methylpyrrolidin-1-yl]propyl]benzonitrile], at APOL1 G2 [1], the AC50 was 1110 nM. Also, the EC50 at APOL1 G2 [2] turned out to be 789 nM.

Consider `CS(=O)(=O)c1ccc(OCC2C[C@@H](CO)N(CCc3cccc(Cl)c3)C2)cc1` (single isomer, unassigned) [Compound 123, [(2S,4S or 4R)-1-[2-(3-chlorophenyl)ethyl]-4-[(4-methanesulfonylphenoxy)methyl]pyrrolidin-2-yl]methanol], for which, on APOL1 G2 [1], the AC50 is 201 nM. The EC50 at APOL1 G2 [2] worked out at 393 nM.

For `CS(=O)(=O)c1ccc(OCC2C[C@@H](CO)N(CCc3cccc(Cl)c3)C2)cc1` (single isomer, unassigned) [Compound 124, [(2S,4R or 4S)-1-[2-(3-chlorophenyl)ethyl]-4-[(4-methanesulfonylphenoxy)methyl]pyrrolidin-2-yl]methanol], the concentration at half-maximal activity (AC50) on APOL1 G2 [1] came to 4920 nM. The EC50 on APOL1 G2 [2] stood at 5310 nM.

On to `CS(=O)(=O)c1ccc(OC[C@H]2C[C@H]3CCCC(Cc4cc(Cl)cc(C#N)c4)N3C2)cc1` (single isomer, unassigned) [Compound 125, 3-{[(2S,5R or 5S,8aR)-2-[(4-methanesulfonylphenoxy)methyl]-octahydroindolizin-5-yl]methyl}-5-chlorobenzonitrile], for which the AC50 at APOL1 G2 [1] turned out to be 2210 nM. Besides, on APOL1 G2 [2], the EC50 came out at 449 nM.

As to `C[C@@H]1CN(CC(CO)c2cc(Cl)cc(C#N)c2)C[C@H]1COc1ccc(S(C)(=O)=O)cc1` (single isomer, unassigned) [Compound 127, 3-chloro-5-[(2R or 2S)-1-hydroxy-3-[(3S,4S)-3-[(4-methanesulfonylphenoxy)methyl]-4-methylpyrrolidin-1-yl]propan-2-yl]benzonitrile], the AC50 on APOL1 G2 [1] was determined as 2220 nM. For the same compound, the EC50 on APOL1 G2 [2] is over 10000 nM.

As for `C[C@@H]1CN(CC(CO)c2cc(Cl)cc(C#N)c2)C[C@H]1COc1ccc(S(C)(=O)=O)cc1` (single isomer, unassigned) [Compound 128, 3-chloro-5-[(2S or 2R)-1-hydroxy-3-[(3S,4S)-3-[(4-methanesulfonylphenoxy)methyl]-4-methylpyrrolidin-1-yl]propan-2-yl]benzonitrile], the half-maximal activity concentration (AC50) on APOL1 G2 [1] was 1510 nM. Besides, the EC50 at APOL1 G2 [2] came to 711 nM.

Regarding `C[C@@H]1C[C@H](COc2ccc(S(C)(=O)=O)cc2)CN1CC(CO)c1cc(Cl)cc(C#N)c1` (single isomer, unassigned) [Compound 129, 3-chloro-5-[(2R or 2S)-1-hydroxy-3-[(2R,4S)-4-[(4-methanesulfonylphenoxy)methyl]-2-methylpyrrolidin-1-yl]propan-2-yl]benzonitrile], on APOL1 G2 [1], the AC50 came out at 4250 nM. Further, the EC50 on APOL1 G2 [2] worked out at 2140 nM.

In the case of `C[C@@H]1C[C@H](COc2ccc(S(C)(=O)=O)cc2)CN1CC(CO)c1cc(Cl)cc(C#N)c1` (single isomer, unassigned) [Compound 130, 3-chloro-5-[(2S or 2R)-1-hydroxy-3-[(2R,4S)-4-[(4-methanesulfonylphenoxy)methyl]-2-methylpyrrolidin-1-yl]propan-2-yl]benzonitrile], the AC50 on APOL1 G2 [1] turned out to be 1940 nM. Moreover, at APOL1 G2 [2], the concentration giving a half-maximal response (EC50) was 303 nM.

For the compound `CS(=O)(=O)c1ccc(OC[C@@H]2CCCN(C3CCc4ccc(Cl)cc4C3)C2)cc1` (single isomer, unassigned) [Compound 132, (3R)-1-[(2S or 2R)-7-chloro-1,2,3,4-tetrahydronaphthalen-2-yl]-3-[(4-methanesulfonylphenoxy)methyl]piperidine], on APOL1 G2 [1], the AC50 was determined as 446 nM. Further, the EC50 on APOL1 G2 [2] is 924 nM.

In the case of `CS(=O)(=O)c1ccc(OC[C@@H]2CCCN(C3CCc4ccc(Cl)cc4C3)C2)cc1` (single isomer, unassigned) [Compound 133, (3R)-1-[(2R or 2S)-7-chloro-1,2,3,4-tetrahydronaphthalen-2-yl]-3-[(4-methanesulfonylphenoxy)methyl]piperidine], on APOL1 G2 [1], the AC50 amounted to 1150 nM. For the same compound, on APOL1 G2 [2], the EC50 turned out to be 1910 nM.

For `C[C@@H]1C[C@H](COc2ccc(S(C)(=O)=O)cc2)CN1C1CCc2c(C#N)cccc2C1` (single isomer, unassigned) [Compound 134, (6R or 6S)-6-[(2R,4S)-4-[(4-methanesulfonylphenoxy)methyl]-2-methylpyrrolidin-1-yl]-5,6,7,8-tetrahydronaphthalene-1-carbonitrile], the AC50 on APOL1 G2 [1] is 601 nM. The EC50 on APOL1 G2 [2] is 292 nM.

Consider `C[C@@H]1C[C@H](COc2ccc(S(C)(=O)=O)cc2)CN1C1CCc2c(C#N)cccc2C1` (single isomer, unassigned) [Compound 135, (6S or 6S)-6-[(2R,4S)-4-[(4-methanesulfonylphenoxy)methyl]-2-methylpyrrolidin-1-yl]-5,6,7,8-tetrahydronaphthalene-1-carbonitrile], for which the concentration at half-maximal activity (AC50) on APOL1 G2 [1] turned out to be 576 nM. The EC50 at APOL1 G2 [2] stood at 84.2 nM.

As for `C[C@@H]1C[C@H](COc2ccc(S(C)(=O)=O)cc2)CN1C1CCc2ccc(C#N)cc2C1` (single isomer, unassigned) [Compound 136, (7S or 7R)-7-[(2R,4S)-4-[(4-methanesulfonylphenoxy)methyl]-2-methylpyrrolidin-1-yl]-5,6,7,8-tetrahydronaphthalene-2-carbonitrile], the AC50 on APOL1 G2 [1] was 707 nM. At APOL1 G2 [2], the 50% effective concentration (EC50) turned out to be 704 nM.

As to `C[C@@H]1C[C@H](COc2ccc(S(C)(=O)=O)cc2)CN1C1CCc2ccc(C#N)cc2C1` (single isomer, unassigned) [Compound 137, (7R or 7S)-7-[(2R,4S)-4-[(4-methanesulfonylphenoxy)methyl]-2-methylpyrrolidin-1-yl]-5,6,7,8-tetrahydronaphthalene-2-carbonitrile], on APOL1 G2 [1], the AC50 was found to be 222 nM. Also, the 50% effective concentration (EC50) on APOL1 G2 [2] stood at 35.8 nM.

Regarding `C[C@@H]1C[C@H](COc2ccc(S(C)(=O)=O)cc2)CN1C1CCc2c(Cl)cccc2C1` (single isomer, unassigned) [Compound 138, (2R,4S)-1-[(2R or 2S)-5-chloro-1,2,3,4-tetrahydronaphthalen-2-yl]-4-[(4-methanesulfonylphenoxy)methyl]-2-methylpyrrolidine], the AC50 on APOL1 G2 [1] was 1080 nM. Besides, the EC50 at APOL1 G2 [2] turned out to be 149 nM.

`C[C@@H]1C[C@H](COc2ccc(S(C)(=O)=O)cc2)CN1C1CCc2c(Cl)cccc2C1` (single isomer, unassigned) [Compound 139, (2R,4S)-1-[(2S or 2R)-5-chloro-1,2,3,4-tetrahydronaphthalen-2-yl]-4-[(4-methanesulfonylphenoxy)methyl]-2-methylpyrrolidine]: the AC50 at APOL1 G2 [1] worked out at 1260 nM. The half-maximal effective concentration (EC50) at APOL1 G2 [2] was determined as 260 nM.

Turning to `CC(c1ccc(OC[C@@H]2CN(CCc3cccc(Cl)c3)CCN2)cc1)S(C)(=O)=O` (single isomer, unassigned) [Compound 141, (3S)-1-[2-(3-chlorophenyl)ethyl]-3-({4-[(1R) or (1S)-1-methanesulfonylethyl]phenoxy}methyl)piperazine], the AC50 at APOL1 G2 [1] turned out to be 160 nM. Further, on APOL1 G2 [2], the EC50 is 234 nM.

For the compound `CC(c1ccc(OC[C@@H]2CN(CCc3cccc(Cl)c3)CCN2)cc1)S(C)(=O)=O` (single isomer, unassigned) [Compound 142, (3S)-1-[2-(3-chlorophenyl)ethyl]-3-({4-[(1S) or (1R)-1-methanesulfonylethyl]phenoxy}methyl)piperazine], the AC50 on APOL1 G2 [1] amounted to 703 nM. The EC50 on APOL1 G2 [2] worked out at 231 nM.

Take `C[C@@H]1CN(CC(O)c2cccc(Cl)c2)C[C@H]1COc1ccc(S(C)(=O)=O)cc1` (single isomer, unassigned) [Compound 144, (1S) or (1R)-1-(3-chlorophenyl)-2-[trans-3-[(4-methanesulfonylphenoxy)methyl]-4-methylpyrrolidin-1-yl]ethan-1-ol]: the AC50 on APOL1 G2 [1] is 265 nM. For the same compound, on APOL1 G2 [2], the EC50 stood at 289 nM.

With `C[C@@H]1C[C@H](COc2cnc(S(C)(=O)=O)cn2)CN1CCc1cccc(C#N)c1` [Compound 1, 3-(2-((2R,4S)-2-methyl-4-(((5-(methylsulfonyl)pyrazin-2-yl)oxy)methyl)pyrrolidin-1-yl)ethyl)benzonitrile], at APOL1 G2 [1], the AC50 was 39.7 nM. Moreover, at APOL1 G2 [2], the EC50 came to 53.7 nM.
